Data on four compounds can be found in paper PMC12596218 (Journal of Lipid Research, 2025).

Several values for one entry are separate records, joined by “and”; a condition that tells them apart may be missing. Equal values may be shown once.

Broadly, the IC50 is the point on the concentration scale where inhibition reaches its midpoint.

The target in test [1] is T1, NTCP (Homo sapiens, UniProt Q14973).
T1 construct: stably transfected with the full open reading frames of human NTCP, ASBT, SOAT, OATP1B1, OATP1B3, OATP2B1, and murine Asbt (mAsbt); expressed in transfected cells; host or cells: HEK293 (Flp-In), stably transfected, tetracycline-induced
T1 sequence (Q14973 1-349): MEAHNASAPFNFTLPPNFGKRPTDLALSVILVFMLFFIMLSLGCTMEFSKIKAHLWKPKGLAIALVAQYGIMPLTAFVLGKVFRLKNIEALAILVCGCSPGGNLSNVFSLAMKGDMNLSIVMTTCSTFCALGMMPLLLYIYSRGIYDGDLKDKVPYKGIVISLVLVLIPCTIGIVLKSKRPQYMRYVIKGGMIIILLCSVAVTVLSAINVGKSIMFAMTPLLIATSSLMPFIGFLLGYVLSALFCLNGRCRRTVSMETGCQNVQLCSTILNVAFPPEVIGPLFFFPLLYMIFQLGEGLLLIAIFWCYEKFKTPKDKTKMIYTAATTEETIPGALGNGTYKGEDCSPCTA
Kind of test: [3H]DHEAS transport inhibition assay in NTCP-HEK293 cells. Format: cell-based. As to conditions: 1 μM [3H]DHEAS, 10 min; two independent experiments; read-out: IC50 NTCP [3H]DHEAS uptake. An excerpt:
Human embryonic kidney HEK293 cells, stably transfected with the full open reading frames of human NTCP, ASBT, SOAT, OATP1B1, OATP1B3, OATP2B1, and murine Asbt (mAsbt) were used as reported ([18], [20], [21], [22], [23]). The NTCP, ASBT, and mAsbt constructs were C-terminally tagged with the FLAG epitope, and the SOAT construct was C-terminally tagged with green fluorescent protein. Non-transfected Flp-In HEK293 cells (Thermo Fisher Scientific) served as the control. All cell lines were maintained at 37°C, 5% CO2 and 95% humidity in DMEM/F-12 medium (Thermo Fisher Scientific) supplemented with 10% fetal calf serum (Sigma-Aldrich), 4 mM L-glutamine (PAA) and penicillin/streptomycin (PAA). […]
Cells were seeded onto poly-L-lysine-coated 96-well plates, induced with 1 μg/ml tetracycline, and grown to confluence over 72 h at 37°C. […] Then, the cell-associated radioactivity of the respective tritium-labeled substrate or ligand was quantified by liquid scintillation counting using MicroScint-20 scintillation cocktail (Revvity) in a Packard Microplate Scintillation Counter TopCount NXT (Packard Instrument Company). […] Finally, all net transport data were expressed as uptake or binding as % of control. […] From the specific uptake rates, Michaelis Menten Km values were calculated by non-linear regression analysis.

Test [2] deals with NTCP. As to conditions: cited from earlier work.
Test [3] has as its target T2, ASBT (Homo sapiens, UniProt Q12908).
T2 construct: stably transfected with the full open reading frames of human NTCP, ASBT, SOAT, OATP1B1, OATP1B3, OATP2B1, and murine Asbt (mAsbt); expressed in transfected cells; host or cells: HEK293 (Flp-In), stably transfected, tetracycline-induced
T2 sequence (Q12908 1-348): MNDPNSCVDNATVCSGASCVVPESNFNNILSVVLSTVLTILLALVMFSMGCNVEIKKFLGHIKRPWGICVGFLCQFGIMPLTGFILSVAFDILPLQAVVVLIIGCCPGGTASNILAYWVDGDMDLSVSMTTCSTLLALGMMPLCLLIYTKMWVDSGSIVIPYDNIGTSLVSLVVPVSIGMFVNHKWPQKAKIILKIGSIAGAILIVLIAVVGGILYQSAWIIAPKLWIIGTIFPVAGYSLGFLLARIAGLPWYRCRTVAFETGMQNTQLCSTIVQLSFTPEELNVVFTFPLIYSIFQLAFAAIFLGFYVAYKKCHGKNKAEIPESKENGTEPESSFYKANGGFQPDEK
Kind of test: Transport inhibition and recovery assay (inhibitor washout) in ASBT-HEK293 cells. In kind it is cell-based. The settings on record: 3 μM inhibitor, 5 min preincubation, 10 min uptake of 1 μM [3H]TC.

Test [4] addresses T3, murine Asbt (mAsbt) (Mus musculus, UniProt P70172).
T3 construct: stably transfected with the full open reading frames of human NTCP, ASBT, SOAT, OATP1B1, OATP1B3, OATP2B1, and murine Asbt (mAsbt); expressed in transfected cells; host or cells: HEK293 (Flp-In), stably transfected, tetracycline-induced
T3 sequence (P70172 1-348): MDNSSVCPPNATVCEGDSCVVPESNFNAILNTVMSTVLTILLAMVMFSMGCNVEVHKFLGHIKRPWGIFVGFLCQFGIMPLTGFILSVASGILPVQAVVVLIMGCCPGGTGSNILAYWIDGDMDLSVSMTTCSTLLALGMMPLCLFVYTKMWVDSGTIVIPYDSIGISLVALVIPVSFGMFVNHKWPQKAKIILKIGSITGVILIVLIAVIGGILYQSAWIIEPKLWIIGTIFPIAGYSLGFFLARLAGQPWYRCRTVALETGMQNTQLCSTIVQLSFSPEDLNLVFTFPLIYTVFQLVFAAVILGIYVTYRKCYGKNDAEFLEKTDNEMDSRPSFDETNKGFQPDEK
The test can be described thus: [3H]TC transport and inhibition assay in mAsbt-HEK293 cells. The settings on record: for Inhibition curve/AUC of mAsbt compared to ASBT: 1 μM [3H]TC, 10 min, AUC combined from two experiments. In kind it is cell-based. The text has this: Human embryonic kidney HEK293 cells, stably transfected with the full open reading frames of human NTCP, ASBT, SOAT, OATP1B1, OATP1B3, OATP2B1, and murine Asbt (mAsbt) were used as reported ([18], [20], [21], [22], [23]). The NTCP, ASBT, and mAsbt constructs were C-terminally tagged with the FLAG epitope, and the SOAT construct was C-terminally tagged with green fluorescent protein. Non-transfected Flp-In HEK293 cells (Thermo Fisher Scientific) served as the control. All cell lines were maintained at 37°C, 5% CO2 and 95% humidity in DMEM/F-12 medium (Thermo Fisher Scientific) supplemented with 10% fetal calf serum (Sigma-Aldrich), 4 mM L-glutamine (PAA) and penicillin/streptomycin (PAA). Expression of the respective carrier protein was induced by tetracycline treatment at 1 μg/ml (Carl Roth GmbH + Co. KG).
Cells were seeded onto poly-L-lysine-coated 96-well plates, induced with 1 μg/ml tetracycline, and grown to confluence over 72 h at 37°C. Then, cells were washed with tempered (37°C) phosphate-buffered saline (PBS, containing 137.0 mM NaCl, 2.7 mM KCl, 1.5 mM KH2PO4, and 7.3 mM Na2HPO4, at pH 7.4) and preincubated with 80 μl sodium transport buffer (STB, containing 142.9 mM NaCl, 4.7 mM KCl, 1.2 mM MgSO4, 1.2 mM KH2PO4, 1.8 mM CaCl2, and 20.0 mM HEPES, at pH 7.4) for 5 min at 37°C. For inhibition studies, the medium was replaced by 80 μl STB containing the respective inhibitor or solvent alone and cells were further incubated for 5 min at 37°C. Transport experiments were started by adding 20 μl of a 5-fold concentrated substrate solution (solved in STB). For transport experiments under sodium-free conditions the same buffer composition was used as for STB, but sodium chloride was substituted with equimolar concentrations of choline chloride as previously reported ([20], [24]). Transport experiments were stopped by washing twice with ice-cold PBS and the plates were kept cool on ice until adding the lysis buffer [1% sodium dodecyl sulfate (SDS) and 1 N NaOH]. Then, the cell-associated radioactivity of the respective tritium-labeled substrate or ligand was quantified by liquid scintillation counting using MicroScint-20 scintillation cocktail (Revvity) in a Packard Microplate Scintillation Counter TopCount NXT (Packard Instrument Company). For IC50 transport inhibition measurements, the mean uptake values measured in non-carrier-expressing HEK293 control cells were defined as 0% uptake control and were subtracted from all other values. Values from cells without inhibitor and solvent alone were set to 100%. Finally, all net transport data were expressed as uptake or binding as % of control. […] From the specific uptake rates, Michaelis Menten Km values were calculated by non-linear regression analysis.

With `CCCCC1(CCCC)CN(c2ccccc2)c2cc(SC)c(OCC(=O)N[C@@H](C(=O)NCC(=O)O)c3ccccc3)cc2S(=O)(=O)C1` [elobixibat], the IC50 in test [1] was 11.7 µM and 11.1 µM; in test [2] (ref PMDA Goofice Report on the Deliberation Results, read-out: IC50 NTCP inhibition), 0.24 µM.
On to `CCCC[C@]1(CC)CS(=O)(=O)c2cc(CNC(CC(=O)O)CC(=O)O)c(OC)cc2[C@@H](c2ccccc2)N1` [linerixibat], for which the “ASBT inhibition with inhibitor present during uptake (inhibitor + [3H]TC)” value in test [3] was “full ASBT inhibition”. The “Inhibition curve/AUC of mAsbt compared to ASBT” value in test [4] is reported as “lower AUC values were determined for mAsbt compared to ASBT but without reaching the level of significance”. Besides, in test [4] (500 μM [3H]TC), the “Transport inhibition at highest substrate concentration” value is “full transport inhibition”. In addition, the “IC50 values at increasing substrate concentrations (in words)” value in test [4] ([3H]TC 0.3-500 μM) is given as “remained quite stable”.
Consider `CCCCC1(CCCC)CS(=O)(=O)c2ccc(N(C)C)cc2[C@@H](c2ccc(OCc3ccc(C[N+]45CCN(CC4)CC5)cc3)cc2)[C@H]1O` [maralixibat], for which the “Inhibition of NTCP” value in test [2] (50 μM, NTCP expressed in CHO cells, ref FDA NDA 214662 Livmarli) is “Maralixibat at 50 μM produced 5% inhibition of NTCP expressed in CHO cells”.
As to `CCCCC1(CCCC)CN(c2ccccc2)c2cc(SC)c(OCC(=O)N[C@@H](C(=O)N[C@@H](CC)C(=O)O)c3ccc(O)cc3)cc2S(=O)(=O)N1` [odevixibat], in test [1], the IC50 is 8.7 µM and 5.5 µM. Further, the “Inhibition curve/AUC of mAsbt compared to ASBT” value in test [4] is on record as “much more potent inhibitor of the human ASBT protein compared to mAsbt”.
